Data reported in patent publication US6803372B2, “Spiro compounds” (Banyu Pharmaceutical Co., Ltd., priority 1999, dated 2004).

Assays:
human NPY Y5 receptor = target: T1, human NPY Y5 receptor (Homo sapiens, UniProt Q15761); assay: NPY binding inhibition test (Pharmacological Test 1); details: [125I]peptideYY, membrane sample from cells expressing NPY Y5 receptor, 25° C., 2 hours; read-out: IC50 of the test compound against specific peptideYY binding
T1 construct: expressed in transfected cells; host or cells: COS-7, CHO and LM(tk-)
T1 sequence (Q15761 1-445): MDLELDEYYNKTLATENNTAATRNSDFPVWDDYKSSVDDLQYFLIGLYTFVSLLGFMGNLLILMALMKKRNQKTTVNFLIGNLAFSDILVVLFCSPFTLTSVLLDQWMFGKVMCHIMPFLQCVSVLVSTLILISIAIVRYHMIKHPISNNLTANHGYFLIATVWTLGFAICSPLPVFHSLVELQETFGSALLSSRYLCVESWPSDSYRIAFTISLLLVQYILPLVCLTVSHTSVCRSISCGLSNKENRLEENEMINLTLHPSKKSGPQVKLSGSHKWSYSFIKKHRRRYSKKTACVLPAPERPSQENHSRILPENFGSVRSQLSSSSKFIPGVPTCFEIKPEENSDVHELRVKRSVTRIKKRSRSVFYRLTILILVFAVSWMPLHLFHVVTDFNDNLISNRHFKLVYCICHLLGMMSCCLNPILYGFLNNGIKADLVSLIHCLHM
Description: Pharmacological Test 1 (NPY Binding Inhibition Test)
cDNA sequence encoding human NPY Y5 receptor [International patent publication number WO96/16542] was cloned into expression vectors pcDNA3, pRc/RSV (made by Invitrogen Inc.) and pCI-neo (made by Promega Inc.). This obtained expression vectors were transfected to host cells COS-7, CHO and LM(tk-) (American Type Culture Collection) by cationic lipid method [Proceedings of the National Academy of Sciences of the United States of America, 84: 7413(1987)] to give NPY Y5 receptor expression cells.
A membrane sample prepared from the cells which expressed NPY Y5 receptor was incubated together with a test compound and [^125I]peptideYY (NEN) (20,000 cpm) in an assay buffer (25 mM Tris buffer, pH7.4, containing 10 mM magnesium chloride, 1 mM phenylmethylsulfonyl fluoride, 0.1% bacitracin and 0.5% bovine serum albumin) at 25° C. for 2 hours, then filtered through a glass filter GF/C and washed with 5 mM Tris buffer (pH7.4) containing 0.3% BSA. The radioactivity of the cake on the glass filter was measured. Nonspecific binding was measured in the presence of 1 μM peptideYY and a 50% Inhibitory Concentration (IC50) of the test compound against specific peptideYY binding was determined [Endocrinology, 131: 2090(1992)].

[1] = Isolation of metabolites of compound of example 101; details: parent: compound of example 101

Compound | IC50 (human NPY Y5 receptor) [nM] | melting point [°C] | isolated as metabolite [1]
O=C1Cc2ccccc2C2(CCN(C(=O)Nc3cn(-c4ccc5ccccc5n4)cn3)CC2)N1 [Example 9, 3,4-Dihydro-3-oxo-N-[1-(2-quinolyl)-4-imidazolyl]spiro[isoquinoline-1(2H),4′-piperidine]-1′-carboxamide] | 0.72 | 264 to 266 | –
O=C1OC2(CCN(C(=O)Nc3ccc4ncc(C(F)(F)F)cc4n3)CC2)c2ccccc21 [Example 26, 3-Oxo-N-(7-trifluoromethylpyrido[3,2-b]pyridin-2-yl)-spiro[isobenzofuran-1(3H),4′-piperidine]-1′-carboxamide] | 2.5 | 246 to 248 | –
O=C1OC2(CCC(C(=O)Nc3cn(-c4cnc5ccccc5c4)cn3)CC2)c2ccccc21 (stereo not drawn) [Example 55, Trans-3′-oxo-N-[1-(3-quinolyl)-4-imidazolyl]spiro[cyclohexane-1,1′(3′H)-isobenzofuran]-4-carboxamide] | 0.59 | > 300 | –
O=C1OC2(CCC(C(=O)Nc3ccn(-c4ccccc4F)n3)CC2)c2c[n+]([O-])ccc21 (stereo not drawn) [Example 107, trans-N-[1-(2-fluorophenyl)-3-pyrazolyl]-3-oxospiro[6-azaisobenzofuran-1(3H),1′-cyclohexane]-4′-carboxamide 6-oxide] | 4.6 | – | isolated as metabolites of compound of example 101
O=C1OC2(CCC(C(=O)Nc3ccn(-c4ccc(O)cc4F)n3)CC2)c2cnccc21 (stereo not drawn) [Example 108, trans-N-[1-(2-fluoro-4-hydroxyphenyl)-3-pyrazolyl]-3-oxospiro[6-azaisobenzofuran-1(3H),1′-cyclohexane]-4′-carboxamide] | 3 | – | isolated as metabolites of compound of example 101
O=C1OC2(CCC(O)(C(=O)Nc3ccn(-c4ccccc4F)n3)CC2)c2cnccc21 (stereo not drawn) [Example 109, cis-N-[1-(2-fluorophenyl)-3-pyrazolyl]-4′-hydroxy-3-oxospiro[6-azaisobenzofuran-1(3H),1′-cyclohexane]-4′-carboxamide] | – | – | isolated as metabolites of compound of example 101
